Tests used:
mouse = assay: Toxicity test (LD50); assay type: in vivo, ddY type mice; settings: mice, oral and intraperitoneal
Method: The test was carried out by the oral dose and the intraperitoneal injection of each solution in 10 ddY type male mice and 10 ddY femal mice. The results after 72 hours from the administration were observed. Probit analysis was used for statistical treatment of mortality.

Aminonucleoside nephrose = assay: Therapy for Aminonucleoside nephrose (urine and blood biochemical observations); assay type: in vivo, SD type male rats; settings: 1000 mg/kg/day oral, 10 days
Method: SD type male rats (weight about 100 g) were fed in each individual room of a metabolism cage under the free water and feed supply.
The rats were classified as the normal group for eight rats, the renal disease group for eight rats and the therapy group for eight rats.
0.3% Aminoucleoside aqueous solution (hereinafter referring to as AN) was administrated by intramuscular injection at a dose of 0.3 ml per 100 g of the rat.
The administration was continued from the 1st day to the 14th day at one time per day.
The data in Tables are average value for eight rats in each group.
The difference between the renal disease group and the therapy group was significant. The symbol * means the existence of significant difference in 5% of the level of significance and the symbol (*) means the existence of significant difference in 5 to 1% of the level of significance. The symbol -- means non-significant difference.

[1] = test system: patients having excessive urinary protein; settings: 150 to 1800 mg/day, with or without additional medicines
Method: When used in combination, the additional medicines were dosed in the amount usual for each of such additional medicines.
The amount of urine protein was measured for the clinical tests. The elimination or remarkable degree of reduction of urine protein was considered to be effective.
The non-steroid anti-inflammatory agents such as Ibuprofen, Indomethacin, Azapropazone, and steroids such as Predonizolone and antibiotics such as Cephalexin, methyl chlorophenyl iso-oxazolyl penicillin were used as the additional medicines.

[2] = test system: hetero antikidney serum nephritis; assay: Therapy for hetero antikidney serum nephritis; assay type: in vivo, Wister type male rats; settings: 1000 mg/kg/day oral
Method: Antikidney serum (rabbit) prepared in accordance with the Heymann method was intravenously injected into tail vein at a dose of 0.5 ml per 100 g of rat at one time per day.
In Table 3, the symbols for tissue observation mean the following conditions of tissues.
A: proliferation of polymorphs of glomeruli
C: thickning of the basement membrane of the glomerular capillaries
D: obliteration of the glomerular capillary loops
F: exudate in Bowman's subcapsule space
G: thickning of Bowman's capsule
H: crescent formation of glomeruli
I: proteinaeous fluid in the tubli
J: swelling of tublar epithelium
K: proliferation of interstitial tissue cells
In Table 4, the degree of lesions were rated as follows:
0: no lesion of tissue is found;
0.5: slight lesion of tissue is found;
1: clear sporadic or slight lesion of tissue is found;
3: inflamed or clear lesion of tissue is found.
The average of ratings for 5 rats in each group is shown.
The level of significance was considered as the same with those of Table 1.

[3] = average lesion rating 0-3 (3 inflamed or clear), normal 0, renal disease group 1.1, significance *
[4] = average lesion rating 0-3 (3 inflamed or clear), normal 0, renal disease group 1.7, significance *

## C[S+](C)CCC(N)C(=O)O (stereo not shown) [Methyl methionine sulfonium chloride]
mouse
  toxicity: low toxicity
Aminonucleoside nephrose; normal 0.1, renal disease group 2.4, significance *
  Urine albumin: 1.6 g/dL
Aminonucleoside nephrose; normal 0.6, renal disease group 5.2, significance *
  Urine protein: 4.0 g/dL
Aminonucleoside nephrose; normal 2.60, renal disease group 0.49, significance *
  Serum albumin: 1.25 g/dL
Aminonucleoside nephrose; normal 5.1, renal disease group 5.4, non-significant
  Serum K^+: 5.6 m Eq/l
Aminonucleoside nephrose; normal 6.48, renal disease group 3.60, significance *
  Serum total protein: 4.47 g/dL
Aminonucleoside nephrose; normal 6.6, renal disease group 196, significance *
  Urine albumin: 106 mg/day
Aminonucleoside nephrose; normal 6.7, renal disease group 6.5, significance (*)
  Urine pH: 6.2
Aminonucleoside nephrose; normal 9.4, renal disease group 8.5, significance (*)
  Urine amount: 6.9 mL/day
Aminonucleoside nephrose; normal 25.2, renal disease group 44.8, significance *
  Serum urea nitrogen: 23.8 mg/dL
Aminonucleoside nephrose; normal 54, renal disease group 441, significance *
  Urine protein: 294 mg/day
Aminonucleoside nephrose; normal 84.3, renal disease group 277, significance *
  Serum cholesterol: 149 mg/dL
Aminonucleoside nephrose; normal 134, renal disease group 135, non-significant
  Serum Na^+: 134 m Eq/l
Aminonucleoside nephrose; normal 160, renal disease group 54, significance *
  Urine Na: 109 m Eq/l
Aminonucleoside nephrose; normal 169, renal disease group 135, non-significant
  Serum glycose: 138 mg/dL
Aminonucleoside nephrose; normal 180, renal disease group 196, significance *
  Weight: 176 g
Aminonucleoside nephrose; normal 230, renal disease group 204, non-significant
  Urine K: 210 m Eq/l
[1]
  effective cases (elimination or remarkable reduction of urine protein): 32 cases among 45 patients
[2]; 9 days, normal 6.3, renal disease group 121, non-significant
  Urine urea: 104 mg/day
[2]; 9 days, normal 23, renal disease group 25, non-significant
  Urea nitrogen in blood: 24 mg/dL
[2]; average lesion rating 0-3 (3 inflamed or clear), normal 0, renal disease group 0, non-significant
  Observation of tissue F: exudate in Bowman's subcapsule space: 0
[2]; average lesion rating 0-3 (3 inflamed or clear), normal 0, renal disease group 0.2, non-significant
  Observation of tissue K: proliferation of interstitial tissue cells: 0.3
[2]; [3]
  Observation of tissue B: thrombus formation: 0.1
  Observation of tissue G: thickning of Bowman's capsule: 0
  Observation of tissue H: crescent formation of glomeruli: 0
[2]; [4]
  Observation of tissue C: thickning of the basement membrane of the glomerular capillaries: 0.4
  Observation of tissue D: obliteration of the glomerular capillary loops: 0.3
[2]; average lesion rating 0-3 (3 inflamed or clear), normal 0, renal disease group 2.2, significance *
  Observation of tissue E: anemia: 0.1
[2]; average lesion rating 0-3 (3 inflamed or clear), normal 0.5, renal disease group 1.6, non-significant
  Observation of tissue J: swelling of tublar epithelium: 1.3
[2]; average lesion rating 0-3 (3 inflamed or clear), normal 0.6, renal disease group 1.8, significance (*)
  Observation of tissue I: proteinaeous fluid in the tubli: 0.8
[2]; average lesion rating (0 none, 0.5 slight, 1 clear sporadic or slight, 3 inflamed or clear), normal 0, renal disease group 1.4, significance (*)
  Observation of tissue A: proliferation of polymorphs of glomeruli: 0.5
